In ChEMBL document CHEMBL5518165, “M335, a novel small-molecule STING agonist activates the immune response and exerts antitumor effects” (Eur J Med Chem, 2024):
Activity calls are given as the source filed them. The rule behind the calls is not given here.

What was measured:
MC-38 [1] = experiment: Antitumor activity against mouse MC38 cells allografted in C57/BL6 mouse assessed as increase in CD8+ T cell numbers in tumor tissues at 300 ug, IT administered every 2 days by immunohistochemical staining based analysis; type: functional; settings: dose 300.0 µg
[2] = biological target: T1, Stimulator of interferon genes protein (Mus musculus) (UniProt Q3TBT3); experiment: Agonist activity at STING in MEF cells assessed as nuclear transposition of phosphorylated IRF3 incubated for 1 hr by laser scanning confocal microscope analysis; type: cell-based; settings: filed as agonist
T1 sequence (whole entry): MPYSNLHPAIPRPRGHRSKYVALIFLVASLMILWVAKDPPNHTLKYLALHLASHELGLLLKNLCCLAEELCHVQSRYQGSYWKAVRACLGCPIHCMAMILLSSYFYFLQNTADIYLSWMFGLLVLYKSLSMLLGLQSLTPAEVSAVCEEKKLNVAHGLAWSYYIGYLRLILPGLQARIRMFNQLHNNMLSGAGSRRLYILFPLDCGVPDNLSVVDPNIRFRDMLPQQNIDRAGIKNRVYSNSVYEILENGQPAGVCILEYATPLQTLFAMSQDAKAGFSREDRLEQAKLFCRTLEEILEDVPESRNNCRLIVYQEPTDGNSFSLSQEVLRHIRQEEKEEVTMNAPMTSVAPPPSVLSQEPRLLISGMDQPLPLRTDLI

[3] = biological target: Stimulator of interferon genes protein (Homo sapiens) (UniProt Q86WV6); experiment: Agonist activity at STING in human THP-1 cells assessed as upregulation of DNA replication related genes by gene ontology analysis; type: cell-based; settings: filed as agonist
MC-38 [4] = experiment: Antitumor activity against mouse MC38 cells allografted in C57/BL6 mouse assessed as increase in IL-6 level in serum at 300 ug, IT administered every 2 days by ELISA; type: functional, cell-based; settings: dose 300.0 µg
CT26 [5] = experiment: Antitumor activity against mouse CT26 cells […] mouse assessed as augmentation of CD8+ T cells in spleen at 10 mg/kg, ip administered every 2 days (reference value: 6.99%); type: functional
[6] = Toxicity in C57/BL6 mouse xenografted with mouse MC38 cells assessed as organ damage at 300 ug, IT administered every 2 days by hematoxylin and eosin staining based histological analysis; type: cell-based, MC-38; settings: in vivo, other, 48 h, dose 300 µg
[7] = Toxicity in […] mouse allografted with mouse CT26 cells assessed as change in body weight at 5 to 20 mg/kg, ip administered every 2 days; type: organism-based; settings: in vivo, 48 h, dose 5-20 mg/kg
THP-1 [8] = experiment: Upregulation of IL6 mRNA level in STING-knockout human THP-1 cells at 20 uM measured for 4 hrs by qPCR analysis; type: functional, cell-based
[9] = biological target: Stimulator of interferon genes protein (Homo sapiens) (UniProt Q86WV6); experiment: Agonist activity at STING in human THP-1 cells assessed as upregulation of innate immune response related genes by gene ontology analysis; type: cell-based; settings: filed as agonist
CT26 [10] = experiment: Antitumor activity against mouse CT26 cells […] mouse assessed as augmentation of CD45+ cells in spleen at 10 mg/kg, ip administered every 2 days (reference value: 35.1%); type: functional
THP1-Dual KO-STING = experiment: Upregulation of interferon production in human THP1-Dual KO-STING cells by dual-luciferase reporter assay; type: functional, cell-based
THP-1 [11] = experiment: Upregulation of CXCL10 mRNA level in STING-knockout human THP-1 cells at 20 uM measured for 4 hrs by qPCR analysis; type: functional, cell-based
[12] = biological target: Stimulator of interferon genes protein (Homo sapiens) (UniProt Q86WV6); experiment: Agonist activity at STING in human THP-1 cells assessed as increase in LC3-II protein level incubated for 4 hrs by Western blotting analysis; type: cell-based; settings: filed as agonist, dose 5-40 µM
CT26 [13] = experiment: Antitumor activity against mouse CT26 cells […] mouse assessed as augmentation of CD3+ T cells in spleen at 20 mg/kg, ip administered every 2 days (reference value: 13.9%); type: functional
[14] = biological target: Stimulator of interferon genes protein (Homo sapiens) (UniProt Q86WV6); experiment: Agonist activity at STING in human THP-1 cells assessed as decrease in STING monomer level at 5 to 40 uM by Western blotting analysis; type: cell-based; settings: filed as agonist, dose 5-40 µM
CT26 [15] = experiment: Antitumor activity against mouse CT26 cells […] mouse assessed as augmentation of CD8+ T cells in spleen at 20 mg/kg, ip administered every 2 days (reference value: 6.99%); type: functional; settings: time 2 day
[16] = biological target: Stimulator of interferon genes protein (Homo sapiens) (UniProt Q86WV6); experiment: Agonist activity at STING in human THP-1 cells assessed as increase in LC3 protein level at 20 uM measured for 4 hrs by Western blotting analysis; type: cell-based; settings: filed as agonist
MC-38 [17] = experiment: Antitumor activity against mouse MC38 cells allografted in C57/BL6 mouse assessed as increase in NK cells in spleen at 300 ug, IT administered every 2 days by flow cytometry analysis (reference value: 3.95%); type: functional; settings: dose 300 µg, time 2 day
[18] = Toxicity in C57/BL6 mouse allografted with mouse MC38 cells assessed as change in body weight at 300 ug, IT administered every 2 days; type: cell-based, MC-38; settings: in vivo, other, 48 h, dose 300 µg
[19] = biological target: T1, Stimulator of interferon genes protein (Mus musculus); experiment: Agonist activity at STING in MEF cells assessed as STING translocation to golgi apparatus by measuring increase in red fluorescence incubated for 1 hr by laser scanning confocal microscope analysis; type: cell-based; settings: filed as agonist
[20] = biological target: Stimulator of interferon genes protein (Homo sapiens) (UniProt Q86WV6); experiment: Agonist activity at STING in human THP-1 cells assessed as upregulation of IL-6/JAK/STAT3 signaling pathway by GSEA; type: cell-based; settings: filed as agonist
[21] = biological target: Stimulator of interferon genes protein (Homo sapiens) (UniProt Q86WV6); experiment: Agonist activity at STING in human THP-1 cells assessed as upregulation of type-1 interferon signaling pathway by gene ontology analysis; type: cell-based; settings: filed as agonist
[22] = biological target: Stimulator of interferon genes protein (Homo sapiens) (UniProt Q86WV6); experiment: Binding affinity to STING CTD (unknown origin) at 3.125 to 200 uM by surface plasmon resonance analysis; settings: filed as agonist, dose 3.125-200 µM
[23] = biological target: Stimulator of interferon genes protein (Homo sapiens) (UniProt Q86WV6); experiment: Agonist activity at STING in human THP-1 cells at 50 uM; type: cell-based; settings: filed as agonist
Human alphaherpesvirus 1 = experiment: Antiviral activity against HSV-1-GFP infected in human STING-deficient WT HeLa cells assessed as reduction in viral infection by fluorescent microscopy analysis; type: functional, organism-based
[24] = biological target: Stimulator of interferon genes protein (Homo sapiens) (UniProt Q86WV6); experiment: Agonist activity at STING in human THP-1 cells assessed as increase in TBK1 phosphorylation incubated for 4 hrs by Western blotting analysis; type: cell-based; settings: filed as agonist, dose 5-40 µM
MC-38 [25] = experiment: Antitumor activity against mouse MC38 cells allografted in C57/BL6 mouse assessed as increase in CD8+ T cell numbers in spleen at 300 ug, IT administered every 2 days by immunohistochemical staining based analysis; type: functional; settings: dose 300.0 µg
THP-1 [26] = experiment: Upregulation of IRF3 phosphorylation in STING-knockout human THP-1 cells at 20 uM measured for 4 hrs by Western blotting analysis; type: functional, cell-based
[27] = biological target: Stimulator of interferon genes protein (Homo sapiens) (UniProt Q86WV6); experiment: Binding affinity to human STING CTD assessed as change in protein denaturation temperature at 10 to 50 uM by thermal shift assay; settings: filed as agonist, dose 10-50 µM
CT26 [28] = experiment: Antitumor activity against mouse CT26 cells […] mouse assessed as augmentation of CD45+ cells in spleen at 20 mg/kg, ip administered every 2 days (reference value: 35.1%); type: functional; settings: time 2 day
MC-38 [29] = experiment: Antitumor activity against mouse MC38 cells allografted in C57/BL6 mouse assessed as increase in NK cells in tumor tissue at 300 ug, IT administered every 2 days by flow cytometry analysis (reference value: 14%); type: functional; settings: dose 300 µg, time 2 day

Stimulator of interferon genes protein (Homo sapiens), sequence (Q86WV6 whole entry): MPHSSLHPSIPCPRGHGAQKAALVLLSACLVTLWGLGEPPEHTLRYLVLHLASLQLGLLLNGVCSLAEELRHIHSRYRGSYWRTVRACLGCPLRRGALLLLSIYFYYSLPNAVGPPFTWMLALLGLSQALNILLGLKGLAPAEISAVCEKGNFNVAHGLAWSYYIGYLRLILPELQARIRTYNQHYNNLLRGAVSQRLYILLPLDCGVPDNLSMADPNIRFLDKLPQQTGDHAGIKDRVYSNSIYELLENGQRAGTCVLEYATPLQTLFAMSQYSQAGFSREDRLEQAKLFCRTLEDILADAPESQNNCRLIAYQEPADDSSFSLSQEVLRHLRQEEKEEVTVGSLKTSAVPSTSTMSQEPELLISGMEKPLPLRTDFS

CC(NCCC(c1ccccc1)c1ccccc1)c1ccccc1 (stereo unspecified) [FENDILINE]
Activity (MC-38 [1]): Active | Activity [2]: Active | Activity [3]: Active | Activity (MC-38 [4]): Active | Activity (CT26 [5]): 15.1% | Activity [6]: Non-Toxic | Activity [7]: Non-Toxic | Activity (THP-1 [8]): inactive | Activity [9]: Active | Activity (CT26 [10]): 56.3% | Activity (THP1-Dual KO-STING): inactive | Activity (THP-1 [11]): inactive | Activity [12]: Dose-Dependent Effect | Activity (CT26 [13]): 41.4% | Activity [14]: Active | Activity (CT26 [15]): 21% | Activity [16]: Active | Activity (MC-38 [17]): 5.94% | Activity [18]: Non-Toxic | Activity [19]: Active | Activity [20]: Active | Activity [21]: Active | Activity [22]: Active | Activity [23]: Active | Activity (Human alphaherpesvirus 1): Active | Activity [24]: Dose-Dependent Effect | Activity (MC-38 [25]): Active | Activity (THP-1 [26]): inactive | Activity [27]: Active | Activity (CT26 [28]): 76.1% | Activity (MC-38 [29]): 24%
